Data set [1] concerns E. coli K1 strain UTI89. Put plainly: Secondary assay 2: T7 phage-mediated lysis assay. The class given is cell-based, Escherichia coli. Conditions: n = 2, read-out: T7 phage IC50. The source says: D. Secondary Assay 2: Screening for Inhibitors of Bacterial Capsule Biogenesis—T7 Lysis Inhibition
Purpose: This secondary assay measures the compound mechanistic specificity for inhibition of bacterial capsule formation and excludes inhibitors of phage replication using a different bacteriophage (T7). In this assay, an increase in phage-induced lysis correlates to a decrease in capsule formation.
Purpose: This secondary assay measures the compound mechanistic specificity for inhibition of bacterial capsule formation using a different bacterial phage (T7). In this assay, an increase in phage-induced lysis correlates to a decrease in capsule formation.
Assay Description: T7 phage-mediated lysis assay: This assay determined if the mechanism of action of the compound is inhibition of phage infectivity or replication. The T7 phage has a nearly identical genome to K1F, without encoding an endosialidase. Its cycle of replication is similar to that of K1F as well. However, T7 entry into E. coli is inhibited by K capsules. This secondary assay was conducted in the 96 well plate format. […] Compounds were added in quadruplicate to plates in a concentration dependent manner in the range of 100-0.39 μM, followed by addition of 100 μL of bacterial culture. 1% DMSO (final well concentration) was included. The plates were tape sealed and shaken vigorously for 1.5 hr. An initial OD600 reading was measured to identify compounds that cause growth retardation or bacterial killing in the absence of phage. Next, T7 phage (5 μL) was added to all of the test wells. The plates were resealed and shaken vigorously at 37° C., and measurements of OD600 for phage-mediated lysis were taken after 3 hr. True inhibitors of capsule yielded bacteria that were susceptible to T7 phage and lysed within 2 hr of the addition of phage. […] The positive control drug C7 (100 μM final well concentration) was used in this screen.
T7 phage counter assay. This secondary assay was performed as previously described and was used to distinguish compounds with phage inhibitory effects from true polysaccharide capsule inhibitors. […] Thus, the presence of a capsule inhibits T7-mediated lysis. In this assay, an increase in phage-induced lysis correlates to a decrease in capsule formation. True inhibitors of capsule yielded bacteria that were susceptible to T7 phage and lysed within 2 hr of the addition of phage. […] The positive control molecule C7 (100 μM final well concentration) was used in this screen.

Data set [2] relates to Bladder carcinoma 5637 cells. Put plainly: Cytotoxicity counterscreen, CellTiter Glo, 72 hr. The class given is cell-based, human. The method, then:
B. Counterscreen: Cytotoxicity Screening for Potential Inhibitors of Bacterial Capsule Biogenesis.
Purpose: This cell-based assay measures the cytotoxicity of compounds in bladder carcinoma 5637 cells using luminescent cell viability assay readout.
Cytotoxicity assay: The cytotoxicity assay was performed as described in Section 6: Appendix. Hit cytotoxicity and the 50% toxic concentration (CC50) was determined and compared to the IC50 to calculate the selectivity index.
Assay Description: Cytotoxicity: Dose response testing (dose range=300-0.58 μM) established the hit cytotoxicity data. Compounds were plated in 384-well microplates in a stacked dose response format using the same doses used in the efficacy dose response. Bladder carcinoma 5637 cells were added to the compounds, and 72 hr later cell viability was measured using CellTiter Glo (38). Hit cytotoxicity and the 50% toxic concentration (TC50) was determined and compared to the IC50 to calculate the therapeutic index. Test compounds are serially diluted in a plate to plate matrix or stacked plate matrix. All 320 compounds in a source plate are diluted together resulting in a 10 point dose response dilution series. It is visualized as a serial dilution series proceeding vertically through a stack of plates with the high dose plate on top and the low dose plate on the bottom.
Control Drug: Hyamine was used as a positive cytotoxic control. All wells contained 0.5% DMSO.
Preparation of Bladder carcinoma 5637 cells: Cells are harvested and resuspended to 80,000 cells per ml in Complete DMEM/F12®.
Endpoint Read: Following the three day incubation period, the assay plates were equilibrated to room temperature for 30 min and an equal volume (30 μL) of Cell Titer-Glo® reagent (Promega Inc.) is added to each well using a WellMate™ (Matrix, Hudson, N.H.) and plates are incubated for an additional 10 min at room temperature. At the end of the incubation, luminescence is measured using a Perkin Elmer Envision™ multi-label reader (PerkinElmer, Wellesley, Mass.) with an integration time of 0.1 s.
Cytotoxicity. Testing was performed essentially as previously described. Concentration-response testing was performed over a range 0.58-300 μM in a […] well plate format. Bladder carcinoma 5637 cells (ATCC HTB-9) were added to the compounds, and 72 hrs later cell viability was measured using CellTiter Glo (Promega). The 50% toxic concentration (TC50) was determined and compared to the IC50 to calculate the therapeutic index. Hyamine was used as a positive cytotoxic control. All wells contained 0.5% DMSO.
A general note: Counterscreens check selectivity or assay interference.

For data set [3], the system named is E. coli K1 strain UTI89. Put plainly: microbe, parasite or virus in culture. The following applies: read-out: K1 phage IC50, n = 3. The source says: The ability of the […] to bind to bacterial capsule, infect, and lyse E. coli UT189 was used as the primary assay to identify the effects of screened compounds on bacterial capsule formation. The phenotypic end-point assay measured the fluorescence generated by cellular processing of Alamar Blue as a direct indicator of cell viability. A total of […] compounds were screened using the primary assay. […] Hits were further evaluated using […] secondary assays for alternative measurement of compound-induced reduction in bacterial capsule formation (secondary assays 1 and 2) and specificity (secondary assays 3 and 4). Confirmed actives with an SI>5 were further investigated and subjected to chemical optimization, followed by secondary assay evaluation. Secondary assays more closely characterized the ability of the compounds to reduce bacterial capsule formation and can be used to examine the mechanism of action of the compounds. The combination of primary assay (to measure capsule reduction), counter assay (for general eukaryotic cell toxicity) and secondary assay (to measure reduction in capsule formation and specificity) were combined to allow a determination of probe efficacy, selectivity, and specificity.
A. Primary Assay: Screening for Inhibitors of Bacterial Capsule Biogenesis.
Primary assay: An end-point assay to measure the amount of K1 phage-induced bacterial cell lysis was employed to determine the compound effect on capsule biogenesis. K1 bacteriophage specifically binds the bacterial capsule during the initial stages of infection. Bacteria without capsule cannot be infected and lysed by the bacteriophage. […] A total of 338,740 compounds were screened at 100 μM in the primary screen Inhibition of phage lysis was calculated relative to the mean of the bacterial (positive) control on each microtiter plate. […] For calculation of S/B/Z value, and CV, the following formulae (in which SD stands for standard deviation) were used: S/B=mean signal/mean background; Z=1-3SD of sample+3SD of control mean of sample−mean of control; % CV=(SD mean signal/mean signal)×100.
IC50 values were calculated using a 4 parameter Levenburg-Marquardt algorithm, with the maximum and minimum locked at 0 and 100 respectively.
Primary assay: The primary assay was conducted in the 1,536 well plate format. Bacterial cultures of E. coli K1 strain UTI89 (cystitis isolate) and isogenic capsule mutant strains (as controls for phage infection) were grown and prepared at the screening center immediately prior to use. Overnight starting cultures of UTI89 were grown at 37° C., and inoculated into 1 liter of LB (starting OD600˜0.03), which was sufficient for screening 40 plates (including ˜10% waste) and ˜40,000 compounds as single points.
Control wells contained UTI89 (wt K1) with 0.5% DMSO as a simulated positive control; UTI89 with 0.5% DMSO and tetracycline for a negative growth control; and media plus vehicle control. 50 mL of LB Broth was inoculated with stock 150 μL E. coli UT189 and grown overnight at 37° C. The next day, cultures were diluted 1:75 in 1 L of LB Broth containing 0.5% DMSO. 3 μL of this culture was added to each plate well, and plates were incubated, inverted, at 37° C. for 2 hr. The K1F bacteriophage stock was diluted 1:8 in LB Broth containing 0.5% DMSO, and 1.5 μL of diluted phage (or media only) was added to the pre-plated test compound wells and appropriate control wells. The plates were centrifuged briefly, and then were incubated, inverted, at 37° C. for an additional 2 hr. Afterward, Alamar Blue reagent (Invitrogen, #DAL1100) was diluted 1:2 with LB broth and 1 μL was added to each plate well.

The mark [4] stands for this setting: first round of synthetic analogues.
Where [5] appears, read: second round of synthetic analogues.

Broadly, the IC50 is the concentration at which inhibition is half-maximal. For the compound `O=C(Nc1cc(-c2ccc(OC(F)(F)F)cc2)sc1C(=O)O)c1cc2ccccc2o1` [compound 53495058], the IC50 with E. coli K1 strain UTI89 [1] (setting [4]) was 3.83 µM; in data set [2] it was 40.6 µM; in the data set with E. coli K1 strain UTI89 [3] (setting [4]), more than 100 µM.
For `CCCc1ccc(-c2cc(NC(=O)c3cc(Br)c(Br)o3)c(C(=O)O)s2)cc1` [compound 56643005], the IC50 in the data set with E. coli K1 strain UTI89 [1] (setting [5]) was less than 5 µM; in data set [2], 41 µM; with E. coli K1 strain UTI89 [3] (setting [5]), 6.78 µM.
With `CCOc1ccc(-c2cc(NC(=O)c3cccc(F)c3)c(C(=O)O)s2)cc1` [compound 23602076], the IC50 with E. coli K1 strain UTI89 [1] (setting [4]) turned out to be 2.61 µM; in data set [2], 61.3 µM; in the data set on E. coli K1 strain UTI89 [3] (setting [4]), 14.7 µM.
Take `O=C(Nc1cc(-c2ccccc2)sc1C(=O)O)c1cccc(Cl)c1` [compound 23602077]: the IC50 in the data set on E. coli K1 strain UTI89 [1] (purchased analogue series) was 34.4 µM; in data set [2], 43.8 µM; in the data set on E. coli K1 strain UTI89 [3] (purchased analogue series) it was 84.5 µM.
For the compound `O=C(O)c1sc(-c2ccc(OCC(F)(F)F)cc2)cc1NC(=O)c1c(F)cccc1F` [compound 56643002], the IC50 is less than 0.625 µM with E. coli K1 strain UTI89 [1] (setting [5]), 75.2 µM in data set [2] and 2.86 µM in the data set on E. coli K1 strain UTI89 [3] (setting [5]).
Consider `CCCc1ccc(-c2cc(NC(=O)c3ccc(Br)o3)c(C(=O)O)s2)cc1` [compound 56643013], for which the IC50 in the data set with E. coli K1 strain UTI89 [1] (setting [5]) was less than 0.625 µM; in data set [2], 46.4 µM; in the data set on E. coli K1 strain UTI89 [3] (setting [5]), 1.43 µM.
In the same order, the values of `CCCCOc1ccc(-c2cc(NC(=O)c3cc(Br)c(Br)o3)c(C(=O)O)s2)cc1` [compound 56643019] are 1.25 to 2.5 µM, 31.7 µM and 23.3 µM.
In the same order, the values of `O=C(O)c1sc(-c2ccc(OCCC(F)(F)F)cc2)cc1NC(=O)c1c(F)cc(F)cc1F` [compound 56643010] are less than 0.625 µM, 63.6 µM and 3.11 µM.
Turning to `O=C(O)c1sc(-c2ccccc2)cc1NC(=O)C1CCCC1` [compound 16393058], the results for the IC50 (in the data set with E. coli K1 strain UTI89 [1] (purchased analogue series); in data set [2]; with E. coli K1 strain UTI89 [3] (purchased analogue series)) were 56.6 µM, 169 µM and more than 100 µM, respectively.
Take `O=C(Nc1cc(-c2ccc(OCCCC(F)(F)F)cc2)sc1C(=O)O)c1cc(Br)c(Br)o1` [compound 56643009]: the IC50 is less than 2.5 µM with E. coli K1 strain UTI89 [1] (setting [5]), 251 µM in data set [2] and more than 100 µM with E. coli K1 strain UTI89 [3] (setting [5]).
Take `CCCCOc1ccc(-c2cc(NC(=O)c3c(F)cccc3F)c(C(=O)O)s2)cc1` [compound 56643007]: the IC50 in the data set on E. coli K1 strain UTI89 [1] (setting [5]) was less than 0.625 µM; in data set [2] it was 42.6 µM; in the data set on E. coli K1 strain UTI89 [3] (setting [5]), less than 0.78 µM.
`Cc1ccc(C(=O)Nc2cc(-c3ccccc3)sc2C(=O)O)s1` [compound 17546665]: the results for the IC50 (in the data set on E. coli K1 strain UTI89 [1] (purchased analogue series); in data set [2]; with E. coli K1 strain UTI89 [3] (purchased analogue series)) were 29.7 µM, 63.6 µM and more than 100 µM, respectively.
As to `O=C(Nc1cc(-c2ccc(OCCCC(F)(F)F)cc2)sc1C(=O)O)c1ccc(Br)o1` [compound 56643008], the IC50 was less than 2.5 µM in the data set with E. coli K1 strain UTI89 [1] (setting [5]), 38.7 µM in data set [2] and 1.78 µM in the data set with E. coli K1 strain UTI89 [3] (setting [5]).
The matching figures for `[N-]=[N+]=NCCOc1ccc(-c2cc(NC(=O)c3c(F)cccc3F)c(C(=O)O)s2)cc1` [compound 56643025]: less than 0.625 µM, 273 µM and 17.5 µM.
For `CCOc1ccc(-c2cc(NC(=O)c3ccc(OC)c(OC)c3)c(C(=O)O)s2)cc1` [compound 23602082], the IC50 turned out to be 8 µM with E. coli K1 strain UTI89 [1] (purchased analogue series), 72.3 µM in data set [2] and 57.9 µM in the data set with E. coli K1 strain UTI89 [3] (purchased analogue series).
Take `CCOc1ccc(-c2cc(NC(=O)c3cc4ccccc4o3)c(C(=O)O)s2)cc1` [compound 53470427]: the IC50 in the data set with E. coli K1 strain UTI89 [1] (setting [4]) is 2.75 µM; in data set [2], 193 µM; in the data set with E. coli K1 strain UTI89 [3] (setting [4]) it was more than 100 µM.
The matching figures for `COc1ccc(-c2cc(NC(=O)c3ccc(Br)o3)c(C(=O)O)s2)cc1` [compound 53470446]: 1.24 µM, 50.5 µM and 11.1 µM.
Take `Cc1ccc(-c2cc(NC(=O)c3ccc(Br)s3)c(C(=O)O)s2)cc1` [compound 53470429]: the IC50 was 10.7 µM with E. coli K1 strain UTI89 [1] (setting [4]), 64 µM in data set [2] and more than 50 µM in the data set with E. coli K1 strain UTI89 [3] (setting [4]).
In the same order, the values of `CC(C)c1ccc(-c2cc(NC(=O)c3cccc(F)c3)c(C(=O)O)s2)cc1` [compound 53470444] are 2.81 µM, 37.6 µM and 24.8 µM.
For `COc1ccc(-c2cc(NC(=O)c3c(F)cccc3F)c(C(=O)O)s2)cc1` [compound 53470430], the IC50 in the data set on E. coli K1 strain UTI89 [1] (setting [4]) is 2.65 µM; in data set [2] it was 239 µM; in the data set on E. coli K1 strain UTI89 [3] (setting [4]) it was more than 100 µM.
In the same order, the values of `COc1ccc(-c2cc(NC(=O)c3cccc(F)c3)c(C(=O)O)s2)cc1` [compound 53470445] are 8.36 µM, 44.8 µM and more than 100 µM.

(Values after patent publication US9688653B2, “Ethoxyphenyl thienyl compounds and methods for the treatment of bacterial infections” (Duke University, priority 2013, dated 2017).)
